Measured values taken from patent US20130157860A1, “METHOD OF CONTROLLING A WEED IN A GRAMINEOUS BIOMASS CROP” (SUMITOMO CHEMICAL COMPANY, LIMITED, priority 2011, published 2013).

Tests used:
[1] = tested on: Setaria faberi, Amaranthus retroflexus, Chenepodium album, and Stellaria media; experiment: Test Example 1: pre-emergence application, herbicidal activity; assay type: in vivo; conditions: pre-emergence application to soil surface, 25 to 1000 g per 1 hectare, greenhouse, evaluated 21 days after treatment
[2] = tested on: switchgrass, miscanthus, giant reed, reed canarygrass, blue stem, erianthus, napier grass, and spartina; experiment: Test Example 1: pre-emergence application, phytotoxicity on biomass crops
Description: Pre-emergence application in switchgrass, miscanthus, giant reed, reed canarygrass, blue stem, erianthus, napier grass and spartina
A field soil is filled into a 32 cm×22 cm plastic case having a depth of 8 cm, seeds of switchgrass, miscanthus, giant reed, reed canarygrass, blue stem, erianthus, napier grass, spartina, Setaria faberi, Amaranthus retroflexus, Chenepodium album, and Stellaria media are seeded thereon, and the seeds are covered with about 0.5 cm of a soil.

[3] = tested on: Echinochloa crus-galli, Digitaria adscendens, Chenopodium album and Abutilon theophrasti; experiment: Test Example 2: post-emergence application, herbicidal activity; assay type: in vivo; conditions: post-emergence application after 2 weeks of cultivation, 25 to 1000 g per 1 hectare, greenhouse, evaluated 21 days after treatment
Description: (§1) A field soil is filled into a 32 cm×22 cm plastic case having a depth of 8 cm, seeds of switchgrass, miscanthus, giant reed, reed canarygrass, blue stem, erianthus, napier grass, spartina, Echinochloa crus-galli, Digitaria adscendens, Chenopodium album and Abutilon theophrasti are seeded thereon, and the seeds are covered with about 0.5 cm of a soil, and cultivated in a greenhouse for 2 weeks.

[4] = tested on: switchgrass, miscanthus, giant reed, reed canarygrass, blue stem, erianthus, napier grass, and spartina; experiment: Test Example 2: post-emergence application, phytotoxicity on biomass crops; assay type: in vivo
Description: as §1

[5] = pre-emergence application to soil surface, 25 to 1000 g per 1 hectare, greenhouse, evaluated 21 days after treatment
[6] = post-emergence application after 2 weeks of cultivation, 25 to 1000 g per 1 hectare, greenhouse, evaluated 21 days after treatment

Row | Compound | herbicidal activity [1] | phytotoxicity [2, 5] | herbicidal activity [3] | phytotoxicity [4, 6] | phytotoxicity ([2]; in vivo) | phytotoxicity ([4]; in vivo)
1 | CCOc1cc(Oc2ccc(C(F)(F)F)cc2Cl)ccc1[N+](=O)[O-] [oxyfluorfen] | high herbicidal activity | without causing significant phytotoxicity | high herbicidal activity | without causing a significant phytotoxicity |  | 
2 | C#CCN1C(=O)COc2cc(F)c(N3C(=O)C4=C(CCCC4)C3=O)cc21 [flumioxazin] | high herbicidal activity | without causing significant phytotoxicity | high herbicidal activity | without causing a significant phytotoxicity |  | 
3 | C#CCN1C(=O)COc2cc(F)c(-n3c(=O)n(C)c(=S)n(C)c3=O)cc21 [compound represented by the formula (I)] | high herbicidal activity |  | high herbicidal activity |  | without causing significant phytotoxicity | without causing a significant phytotoxicity
4 | CS(=O)(=O)NC(=O)c1cc(Oc2ccc(C(F)(F)F)cc2Cl)ccc1[N+](=O)[O-] [fomesafen] | high herbicidal activity | without causing significant phytotoxicity | high herbicidal activity |  |  | 
5 | CC(C)N(C)S(=O)(=O)NC(=O)c1cc(-n2c(=O)cc(C(F)(F)F)n(C)c2=O)c(F)cc1Cl [saflufenacil] | high herbicidal activity | without causing significant phytotoxicity | high herbicidal activity | without causing a significant phytotoxicity |  | 
6 | Cc1nn(-c2cc(NS(C)(=O)=O)c(Cl)cc2Cl)c(=O)n1C(F)F [sulfentrazone] | high herbicidal activity |  | high herbicidal activity |  | without causing significant phytotoxicity | without causing a significant phytotoxicity
